Assay results reported in US20250171463A1 (BIOGEN MA INC., priority 2022, published 2025).

Biological target: T1, EBP (Homo sapiens, UniProt Q15125)
T1 construct: HEK293T cells were utilized as the source of EBP enzyme; endogenous in cells; host or cells: HEK293T
Experiment: EBP Functional Assay (EBP immunoaffinity LC-MS assay)
Assay type: biochemical
Settings: EBP enzyme from HEK293T cells; 30 min with inhibitor, then zymosterol-d5, 37° C., 4 h; percent conversion to dehydrolathosterol-d5 by LC-APCI MRM MS
Procedure: The EBP immunoaffinity (IA) LC-MS assay measures the potency of small molecule inhibitors of EBP by quantifying their concentration-dependent changes in the enzyme's substrate and product using liquid chromatography atmospheric pressure chemical ionization multiple reaction monitoring mass spectrometry (LC-APCI MRM MS). HEK293T cells were utilized as the source of EBP enzyme. The enzyme was incubated with the small molecule inhibitors at variable concentrations for 30 min. Deuterated form of EBP substrate, zymosterol-d5 (Avanti Polar Lipids, Cat #700068P-1 mg), was then added and the plate was incubated at 37° C. for 4 h. Finally, the sterol isomers were extracted and injected to LC-APCI MRM MS. MRM transition used for the quantification for both zymosterol and […] (substrate and product of EBP enzymatic reaction, respectively) is 372.3-203.2, CE 30 and DP 80 in positive ion mode. Percent conversion of the zymosterol-d5 to dehydrolathosterol-d5 was used to derive IC50 curves. Tasin-1 (1′-[(4-Methoxyphenyl)sulfonyl]-4-methyl-1,4′-bipiperidine, CAS 792927-06-1) was used as the reference small molecule inhibitor.
Percent conversion versus the compound concentration data were fit to the following 4-parameter logistic model to generate IC50 curves: […]

T1 sequence (Q15125 whole entry): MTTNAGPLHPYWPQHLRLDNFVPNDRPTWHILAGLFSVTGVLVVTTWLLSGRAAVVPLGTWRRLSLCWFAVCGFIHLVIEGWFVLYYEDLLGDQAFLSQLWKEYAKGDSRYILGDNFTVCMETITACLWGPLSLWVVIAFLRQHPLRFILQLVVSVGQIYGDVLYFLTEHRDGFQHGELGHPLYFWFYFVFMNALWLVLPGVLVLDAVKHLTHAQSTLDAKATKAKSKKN

Row | SMILES | IC50 [nM]
1 | Cc1ccc(S(=O)(=O)N2CC3(CN(C4CCOCC4)C3)C2)c(C)c1 [Example 44, 2-((2,4-Dimethylphenyl)sulfonyl)-6-(tetrahydro-2H-pyran-4-yl)-2,6-diazaspiro[3.3]heptane] | < 100
2 | Cc1ccc(S(=O)(=O)N2CC3(CN(CC4(O)CCOCC4)C3)C2)c(C)c1 [Example 45, 4-((6-((2,4-Dimethylphenyl)sulfonyl)-2,6-diazaspiro[3.3]heptan-2-yl)methyl)tetrahydro-2H-pyran-4-ol] | 100 to 250
3 | Cn1nc(C(F)(F)F)cc1S(=O)(=O)N1CC2(CN(C3CCOCC3)C2)C1 [Example 46, 2-((1-Methyl-3-(trifluoromethyl)-1H-pyrazol-5-yl)sulfonyl)-6-(tetrahydro-2H-pyran-4-yl)-2,6-diazaspiro[3.3]heptane] | 100 to 250
4 | COc1ccc(S(=O)(=O)N2CC3(CN(C4CCOCC4)C3)C2)c(C)n1 [Example 47] | 100 to 250
5 | Cc1cc(C(F)(F)F)ncc1S(=O)(=O)N1CC2(CN(C3CCOCC3)C2)C1 [Example 48] | 100 to 250
6 | Cc1nn(C)c(S(=O)(=O)N2CC3(CN(C4CCOCC4)C3)C2)c1C(F)F [Example 49] | 100 to 250
7 | Cc1nc(C(F)(F)F)ccc1S(=O)(=O)N1CC2(CN(C3CCOCC3)C2)C1 [Example 51, 2-((2-Methyl-6-(trifluoromethyl)pyridin-3-yl)sulfonyl)-6-(tetrahydro-2H-pyran-4-yl)-2,6-diazaspiro[3.3]heptane] | < 100
8 | Cc1cc(C)c(S(=O)(=O)N2CC3(CCN(C4CCOCC4)C3)C2)cn1 [Example 53] | < 100
9 | Cn1nc(C(F)(F)F)cc1S(=O)(=O)N1CCC2(CN(C3CCOCC3)C2)C1 [Example 60, 6-((1-methyl-3-(Trifluoromethyl)-1H-pyrazol-5-yl)sulfonyl)-2-(tetrahydro-2H-pyran-4-yl)-2,6-diazaspiro[3.4]octane] | < 100
10 | Cc1ccc(S(=O)(=O)N2CC3(C[C@H]4CC[C@@H](C3)N4CC(C)(C)O)C2)c(C)c1 [Example 62, 1-((1′R,5′S)-1-((2,4-dimethylphenyl)sulfonyl)-8′-azaspiro[azetidine-3,3′-bicyclo[3.2.1]octan]-8′-yl)-2-methylpropan-2-ol] | < 100
11 | COC(C)(C)CN1CC2(C[C@H]3CC[C@@H](C2)N3S(=O)(=O)c2ccc(OC(F)F)cc2)C1 [Example 63, (1′R,5′S)-8′-((4-(Difluoromethoxy)phenyl)sulfonyl)-1-(2-methoxy-2-methylpropyl)-8′-azaspiro[azetidine-3,3′-bicyclo[3.2.1]octane]] | 100 to 250
12 | O=S(=O)(c1cc(C(F)(F)F)nn1CC1CC1)N1CC2(CN(C3CCOCC3)C2)C1 [Example 65, 2-((1-(cyclopropylmethyl)-3-(trifluoromethyl)-1H-pyrazol-5-yl)sulfonyl)-6-(tetrahydro-2H-pyran-4-yl)-2,6-diazaspiro[3.3]heptane] | 250 to 4000
13 | O=S(=O)(c1cc(C(F)(F)F)nn1CC1CC1)N1CC2(CN(CC3CCOCC3)C2)C1 [Example 66, 2-((1-(cyclopropylmethyl)-3-(trifluoromethyl)-1H-pyrazol-5-yl)sulfonyl)-6-((tetrahydro-2H-pyran-4-yl)methyl)-2,6-diazaspiro[3.3]heptane] | 250 to 4000
14 | Cc1nc(Br)ccc1S(=O)(=O)N1CC2(CN(C3CCOCC3)C2)C1 [Example 67, 2-((6-bromo-2-methylpyridin-3-yl)sulfonyl)-6-(tetrahydro-2H-pyran-4-yl)-2,6-diazaspiro[3.3]heptane] | 250 to 4000
15 | Cc1nc(C(F)(F)F)ccc1S(=O)(=O)N1CC2(C1)CN([C@H]1C[C@]3(CCO3)C1)C2 [Example 70, 2-((2-methyl-6-(trifluoromethyl)pyridin-3-yl)sulfonyl)-6-((4s,6s)-1-oxaspiro[3.3]heptan-6-yl)-2,6-diazaspiro[3.3]heptane] | < 100
16 | Cc1nc(C(F)(F)F)ccc1S(=O)(=O)N1CC2(C1)CN([C@H]1C[C@@]3(CCO3)C1)C2 [Example 71, 2-((2-methyl-6-(trifluoromethyl)pyridin-3-yl)sulfonyl)-6-((4r,6r)-1-oxaspiro[3.3]heptan-6-yl)-2,6-diazaspiro[3.3]heptane] | 100 to 250
17 | Cn1nc(C(F)(F)F)cc1S(=O)(=O)N1CC2(CN(CC3(C)CCOCC3)C2)C1 [Example 72, 2-((1-methyl-3-(trifluoromethyl)-1H-pyrazol-5-yl)sulfonyl)-6-((4-methyltetrahydro-2H-pyran-4-yl)methyl)-2,6-diazaspiro[3.3]heptane] | 100 to 250
18 | Cc1nc(C(F)(F)F)ccc1S(=O)(=O)N1CC2(CN(CC34COC(C)(C3)C4)C2)C1 [Example 73, 2-((1-methyl-2-oxabicyclo[2.1.1]hexan-4-yl)methyl)-6-((2-methyl-6-(trifluoromethyl)pyridin-3-yl)sulfonyl)-2,6-diazaspiro[3.3]heptane] | 100 to 250
19 | Cc1nc(C(F)(F)F)ccc1S(=O)(=O)N1CC2(CN(CC34CCOC(C)(C3)C4)C2)C1 [Example 74, 2-((1-methyl-2-oxabicyclo[3.1.1]heptan-5-yl)methyl)-6-((2-methyl-6-(trifluoromethyl)pyridin-3-yl)sulfonyl)-2,6-diazaspiro[3.3]heptane] | < 100
20 | Cn1nc(C(F)(F)F)cc1S(=O)(=O)N1CC2(CN(C3(C)CCOCC3)C2)C1 [Example 76, 2-((1-methyl-3-(trifluoromethyl)-1H-pyrazol-5-yl)sulfonyl)-6-(4-methyltetrahydro-2H-pyran-4-yl)-2,6-diazaspiro[3.3]heptane] | < 100
21 | Cc1nc(C(F)(F)F)ccc1S(=O)(=O)N1CC2(CN(C3(C)CCOCC3)C2)C1 [Example 77, 2-((2-methyl-6-(trifluoromethyl)pyridin-3-yl)sulfonyl)-6-(4-methyltetrahydro-2H-pyran-4-yl)-2,6-diazaspiro[3.3]heptane] | < 100
22 | Cc1nc(C(C)(F)F)ccc1S(=O)(=O)N1CC2(CN(C3CC4(COC4)C3)C2)C1 [Example 78, 2-((6-(1,1-difluoroethyl)-2-methylpyridin-3-yl)sulfonyl)-6-(2-oxaspiro[3.3]heptan-6-yl)-2,6-diazaspiro[3.3]heptane] | 100 to 250
23 | Cc1nc(C(C)(F)F)ccc1S(=O)(=O)N1CC2(CN(C3CCOCC3)C2)C1 [Example 79] | < 100
24 | Cc1nc(C(C)(F)F)ccc1S(=O)(=O)N1CC2(CN(C3CCCOC3)C2)C1 (stereo not shown) [Example 80] | 250 to 4000
25 | Cc1nc(C(C)(F)F)ccc1S(=O)(=O)N1CC2(CN(CC3CCOCC3)C2)C1 [Example 81] | < 100

Now from value to compound:

Row | IC50 [nM] | SMILES
26 | < 100 | Cc1ccc(S(=O)(=O)N2CCC3(CCN(C4CCOCC4)C3)CC2)c(Cl)c1 [Example 36, 8-((2-Chloro-4-methylphenyl)sulfonyl)-2-(tetrahydro-2H-pyran-4-yl)-2,8-diazaspiro[4.5]decane]
27 | 100 to 250 | Cc1cc(S(=O)(=O)N2CCC3(CCN(C4CCOCC4)C3)CC2)n(C)n1 [Example 37]
28 | < 100 | Cc1cc(C(F)(F)F)ncc1S(=O)(=O)N1CCC2(CCN(C3CCOCC3)C2)CC1 [Example 38]
29 | < 100 | O=S(=O)(c1ccc(OC(F)F)cc1)N1CCC2(CCN(C3CCOCC3)C2)CC1 [Example 39]
30 | < 100 | Cn1nc(C(F)(F)F)cc1S(=O)(=O)N1CCC2(CCN(C3CCOCC3)C2)CC1 [Example 40]
31 | < 100 | Cc1cc(OC(F)(F)F)ccc1S(=O)(=O)N1CCC2(CCN(C3CCOCC3)C2)CC1 [Example 41]
32 | < 100 | Cc1nc(C(F)(F)F)ccc1S(=O)(=O)N1CCC2(CCN(C3CCOCC3)C2)CC1 [Example 42]
33 | < 100 | COc1ccc(S(=O)(=O)N2CCC3(CCN(C4CCOCC4)C3)CC2)c(C)n1 [Example 43]
34 | < 100 | Cc1cc(OC(F)(F)F)ccc1S(=O)(=O)N1CC2(CN(C3CCOCC3)C2)C1 [Example 50]
35 | < 100 | Cc1ccc(S(=O)(=O)N2CC3(CCN(C4CCOCC4)C3)C2)c(C)c1 [Example 52, 2-((2,4-Dimethylphenyl)sulfonyl)-6-(tetrahydro-2H-pyran-4-yl)-2,6-diazaspiro[3.4]octane]
36 | 100 to 250 | O=S(=O)(c1ccc(OC(F)F)cc1)N1CC2(CCN(C3CCOCC3)C2)C1 [Example 54]
37 | < 100 | Cn1nc(C(F)(F)F)cc1S(=O)(=O)N1CC2(CCN(C3CCOCC3)C2)C1 [Example 55]
38 | < 100 | Cc1nc(C(F)(F)F)ccc1S(=O)(=O)N1CC2(CCN(C3CCOCC3)C2)C1 [Example 56]
39 | 100 to 250 | Cc1cc(C(F)(F)F)ncc1S(=O)(=O)N1CC2(CCN(C3CCOCC3)C2)C1 [Example 57]
40 | < 100 | Cc1cc(OC(F)(F)F)ccc1S(=O)(=O)N1CC2(CCN(C3CCOCC3)C2)C1 [Example 58]
41 | 100 to 250 | Cn1nc(C2CC2)cc1S(=O)(=O)N1CC2(CCN(C3CCOCC3)C2)C1 [Example 59]
42 | 100 to 250 | O=S(=O)(c1ccc(OC(F)F)cc1)N1[C@@H]2CC[C@H]1CC1(C2)CN(C2CCOCC2)C1 [Example 61, (1′R,5′S)-8′-((4-(Difluoromethoxy)phenyl)sulfonyl)-1-(tetrahydro-2H-pyran-4-yl)-8′-azaspiro[azetidine-3,3′-bicyclo[3.2.1]octane]]
43 | 250 to 4000 | COC(C)(C)CN1[C@@H]2CC[C@H]1CC1(C2)CN(S(=O)(=O)c2ccc(OC(F)F)cc2)C1 [Example 64, (1′R,5′S)-1-((4-(Difluoromethoxy)phenyl)sulfonyl)-8′-(2-methoxy-2-methylpropyl)-8′-azaspiro[azetidine-3,3′-bicyclo[3.2.1]octane]]
